Experimental data: PMC4929566, “The metabolome of [2-^14C](−)-epicatechin in humans: implications for the assessment of efficacy, safety, and mechanisms of action of polyphenolic bioactives” (Scientific Reports, 2016)

Assay: Metabolite profiling and quantification in urine (HPLC-MS2 with on-line radioactivity detector)
Assay type: in vivo, humans
Conditions: human, oral 207 μmol 14C-EC, mean ± SEM n=8
Procedure: (§1) The study was a single-center, open-label, and non-randomized study with two distinct elements: a run-in phase to establish a more defined dietary background of dietary flavanols and procyanidins and the subsequent ^14C-EC ADME study (Fig. 1B). Participants (n = 12) were enrolled in the run-in phase (day –17 to day –4) and asked to supplement their daily diet for 14 days with a commercially available flavanol-containing cocoa-based drink (250 mg cocoa flavanols; 40 mg of EC). This was followed by a 4-day period (day –4 to 0) of a low-flavanol diet. One day (study day -1) prior to the initialization of the ^14C-EC ADME study, all eligible participants were accommodated under controlled conditions at a metabolic research facility (Covance Clinical Pharmacology Inc., Wisconsin) until completion of the study. Based on the compliance of the first part of the study, 8 participants were selected to participate in the ^14C-EC ADME study. During the ^14C-EC ADME study (Fig. 1B.), volunteers received a low-flavanol, standardized high-fiber diet, and were encouraged to maintain an adequate level of hydration (water ad libitum). Volunteers were asked to fast for 8 h before the initiation of the study and for at least 4 h after the intake of the ^14C-EC test drink (water ad libitum). Venous blood samples were taken using Vacutainer collection tubes, containing potassium EDTA at 0 h (just prior to ^14C-EC ingestion), and at 0.25, 0.5, 1, 1.5, 2, 2.5, 3, 4, 6, 8, 10, 12, 16, 24, 36, and 48 h after test drink consumption. Plasma was obtained by whole blood centrifugation at 2000 × g for 15 min at 5 °C, separated into aliquots and stored at −80 °C until analysis. All urine and feces from the time just prior to the consumption of the test drink were collected at different time intervals for radioactivity and metabolite profiling. Clinical parameters and laboratory evaluations of participants were assessed at screening, on study day –1, and after completing the study, as detailed in Supplementary Methods.
(§2) Samples were processed as described previously[18] and analyzed by HPLC-MS^2 in conjunction with an on-line HPLC-radioactivity monitor as described in SI Materials and Methods. Identification of metabolites involved comparing the retention time with authentic standards and MS^2 fragmentation patterns (Supplementary Methods). Quantification of metabolites in urine was based on HPLC radioactivity peak area (limit of quantification: 10^3 dpm). Due to the low levels of radioactivity, quantification in plasma was based on targeted HPLC-MS^2 using standard curves obtained with authentic standards (Supplementary Methods).
HPLC-MS identifications of radiolabeled [2-14C](−)-epicatechin metabolites in urine Urine was analyzed with radioactivity and mass spectrometry (MS) detection using a 250 mm x 4.6 mm i.d. 5 µm Luna Phenyl-Hexyl column (Phenomenex, Macclesfield, UK) […]
formic acid. Metabolite identification was performed by 1) co-chromatography of metabolites with reference compounds and a comparison of their MS fragmentation patterns 2, 2) by comparing m/z fragmentation patterns with earlier in-house observed […]
patterns to databases of metabolites reported in earlier polyphenol feeding studies5-7.
Supplementary Table S2, which also provides information on the MSI MI (Metabolite Standards Initiative – Metabolites Identification) level, a confidence level for identification where level 1 stands for fully elucidated (i.e., by comparison with a standard) and level 2 for a well characterized, but not yet fully structurally elucidated 8

Structure (SMILES) | Metabolite present in urine, collection period 0–48 h
COc1ccc([C@H]2Oc3cc(O)cc(OS(=O)(=O)O)c3C[C@H]2O)cc1O [4′-O-Methyl-(−)-epicatechin-5-sulfate] | 1.1 ± 0.3 μ mol
COc1cc([C@H]2Oc3cc(O)cc(O)c3C[C@H]2O)ccc1OS(=O)(=O)O [3′-O-Methyl-(−)-epicatechin-4′-sulfate] | 0.7 ± 0.2 μ mol
O=S(=O)(O)Oc1cc([C@H]2Oc3cc(O)cc(O)c3C[C@H]2O)ccc1O [(−)-Epicatechin-3′-sulfate, (−)-epicatechin-3′-sulfate] | 7.7 ± 0.9 μ mol
O=C1CCC(Cc2ccc(O)c(OS(=O)(=O)O)c2)O1 (centres unmarked) [5-(4′-hydroxyphenyl)-γ-valerolactone-3′-sulfate] | 38.0 ± 4.7 μ mol
COc1ccc([C@H]2Oc3cc(OS(=O)(=O)O)cc(O)c3C[C@H]2O)cc1O [4′-O-Methyl-(−)-epicatechin-7-sulfate] | 0.4 ± 0.2 μ mol
COc1cc([C@H]2Oc3cc(OS(=O)(=O)O)cc(O)c3C[C@H]2O)ccc1O [3′-O-Methyl-(−)-epicatechin-7-sulfate, 3′-O-methyl-(−)-epicatechin-7-sulfate] | 1.2 ± 0.3 μ mol

Same assay, conditions: human, oral 207 μmol 14C-EC, mean ± SEM n=8; – = not detected

Structure (SMILES) | Metabolite present in urine, collection period 0–4 h | Metabolite present in urine, collection period 4–8 h | Metabolite present in urine, collection period 8–12 h | Metabolite present in urine, collection period 12–24 h | Metabolite present in urine, collection period 24–48 h
COc1ccc([C@H]2Oc3cc(O)cc(OS(=O)(=O)O)c3C[C@H]2O)cc1O [4′-O-Methyl-(−)-epicatechin-5-sulfate] | 1.0 ± 0.2 μ mol | 0.1 ± 0.1 μ mol | – | – | –
COc1cc([C@H]2Oc3cc(O)cc(O)c3C[C@H]2O)ccc1OS(=O)(=O)O [3′-O-Methyl-(−)-epicatechin-4′-sulfate] | 0.7 ± 0.2 μ mol | – | – | – | –
O=S(=O)(O)Oc1cc([C@H]2Oc3cc(O)cc(O)c3C[C@H]2O)ccc1O [(−)-Epicatechin-3′-sulfate, (−)-epicatechin-3′-sulfate] | 6.0 ± 0.7 μ mol | 1.2 ± 0.4 μ mol | 0.3 ± 0.1 μ mol | 0.2 ± 0.2 μ mol | –
O=C1CCC(Cc2ccc(O)c(OS(=O)(=O)O)c2)O1 (centres unmarked) [5-(4′-hydroxyphenyl)-γ-valerolactone-3′-sulfate] | 3.6 ± 1.1 μ mol | 16.0 ± 3.0 μ mol | 9.8 ± 2.0 μ mol | 8.1 ± 2.9 μ mol | 0.5 ± 0.5 μ mol
COc1ccc([C@H]2Oc3cc(OS(=O)(=O)O)cc(O)c3C[C@H]2O)cc1O [4′-O-Methyl-(−)-epicatechin-7-sulfate] | 0.3 ± 0.1 μ mol | 0.1 ± 0.1 μ mol | – | – | –
COc1cc([C@H]2Oc3cc(OS(=O)(=O)O)cc(O)c3C[C@H]2O)ccc1O [3′-O-Methyl-(−)-epicatechin-7-sulfate, 3′-O-methyl-(−)-epicatechin-7-sulfate] | 0.9 ± 0.2 μ mol | 0.3 ± 0.1 μ mol | – | – | –

Assay: Metabolite profiling and pharmacokinetics in plasma (targeted HPLC-MS2)
Assay type: in vivo, humans
Conditions: human plasma, oral 60 mg 14C-EC, mean ± SEM n=8
Procedure: as §1, §2
Data are expressed as mean values ± standard error, or as otherwise specified. Pharmacokinetic parameters were calculated using non-compartmental analysis with WinNonlin (Pharsight Corporation, Version 5.2).
5-20% acetonitrile in 0.1 % formic acid. Supplementary Table S2 provides details of HPLC retention times and the m/z values that were monitored.
Supplementary Table S2. Detection of (−)-epicatechin metabolites. HPLC retention times and selected reaction monitoring ions used for the HPLC-MS analysis of (−)-epicatechin metabolites in plasma. […]
Structurally related (-)-epicatechin metabolites in humans: assessment using de novo chemically synthesized authentic standards. Free Radic Biol Med 52, 1403- […]
3 Borges, G. et al. Bioavailability of multiple components following acute ingestion of a polyphenol-rich juice drink. Mol Nutr Food Res 54 Suppl 2, S268-277, […]
4 Stalmach, A. et al. Absorption, metabolism, and excretion of green tea flavan-3-ols in humans with an ileostomy. Mol Nutr Food Res 54, 323-334,

Structure (SMILES) | AUC0-24h | Cmax | T1/2 (elimination half-life) | Tmax
COc1ccc([C@H]2Oc3cc(O)cc(OS(=O)(=O)O)c3C[C@H]2O)cc1O [4′-O-Methyl-(−)-epicatechin-5-sulfate] | 0.128 ± 0.045 µM·h | 53 ± 14 nM | 1.4 ± 0.3 h | 0.9 ± 0.1 h
COc1cc([C@H]2Oc3cc(O)cc(O)c3C[C@H]2O)ccc1OS(=O)(=O)O [3′-O-Methyl-(−)-epicatechin-4′-sulfate] | 0.203 ± 0.069 µM·h | 53 ± 13 nM | 2.3 ± 0.6 h | 0.9 ± 0.1 h
COc1ccc([C@H]2Oc3cc(OS(=O)(=O)O)cc(O)c3C[C@H]2O)cc1O [4′-O-Methyl-(−)-epicatechin-7-sulfate] | 0.166 ± 0.054 µM·h | 33 ± 5 nM | 2.6 ± 0.5 h | 1.4 ± 0.2 h
COc1cc([C@H]2Oc3cc(OS(=O)(=O)O)cc(O)c3C[C@H]2O)ccc1O [3′-O-Methyl-(−)-epicatechin-7-sulfate, 3′-O-methyl-(−)-epicatechin-7-sulfate] | 1.03 ± 0.26 µM·h | 159 ± 20 nM | 2.4 ± 0.2 h | 1.1 ± 0.1 h

Same assay, conditions: male; human plasma, oral 60 mg 14C-EC, mean ± SEM n=8

Structure (SMILES) | Cmax
O=S(=O)(O)Oc1cc([C@H]2Oc3cc(O)cc(O)c3C[C@H]2O)ccc1O [(−)-Epicatechin-3′-sulfate, (−)-epicatechin-3′-sulfate] | 191 ± 17 nM
O=C1CCC(Cc2ccc(O)c(OS(=O)(=O)O)c2)O1 (centres unmarked) [5-(4′-hydroxyphenyl)-γ-valerolactone-3′-sulfate] | 272 ± 56 nM

Same assay, conditions: male; human plasma, oral 60 mg 14C-EC, mean ± SEM n=8; read-out: AUC0-24h

Structure (SMILES) | AUC(0-t)
O=S(=O)(O)Oc1cc([C@H]2Oc3cc(O)cc(O)c3C[C@H]2O)ccc1O [(−)-Epicatechin-3′-sulfate, (−)-epicatechin-3′-sulfate] | 0.633 ± 0.135 µM·h
O=C1CCC(Cc2ccc(O)c(OS(=O)(=O)O)c2)O1 (centres unmarked) [5-(4′-hydroxyphenyl)-γ-valerolactone-3′-sulfate] | 7.59 ± 2.68 µM·h

Same assay, conditions: male; human plasma, oral 60 mg 14C-EC, mean ± SEM n=8; read-out: T1/2 (elimination half-life) (converted)

Structure (SMILES) | half-life
O=S(=O)(O)Oc1cc([C@H]2Oc3cc(O)cc(O)c3C[C@H]2O)ccc1O [(−)-Epicatechin-3′-sulfate, (−)-epicatechin-3′-sulfate] | 2 ± 0.3 h
O=C1CCC(Cc2ccc(O)c(OS(=O)(=O)O)c2)O1 (centres unmarked) [5-(4′-hydroxyphenyl)-γ-valerolactone-3′-sulfate] | 6.3 ± 1.7 h

Same assay, conditions: male; human plasma, oral 60 mg 14C-EC, mean ± SEM n=8; read-out: Tmax

Structure (SMILES) | Tmax
O=S(=O)(O)Oc1cc([C@H]2Oc3cc(O)cc(O)c3C[C@H]2O)ccc1O [(−)-Epicatechin-3′-sulfate, (−)-epicatechin-3′-sulfate] | 1.1 ± 0.1 h
O=C1CCC(Cc2ccc(O)c(OS(=O)(=O)O)c2)O1 (centres unmarked) [5-(4′-hydroxyphenyl)-γ-valerolactone-3′-sulfate] | 6.4 ± 1 h

Same assay, conditions: male; human plasma, oral 60 mg 14C-EC; read-out: Plasma concentration 24 h after ingestion

Structure (SMILES) | concentration at 24 h
O=C1CCC(Cc2ccc(O)c(OS(=O)(=O)O)c2)O1 (centres unmarked) [5-(4′-hydroxyphenyl)-γ-valerolactone-3′-sulfate] | ~50 nM
